Source: patent publication US4942256A, “Novel intermediates in the manufacture of novel thromboxane A2 antagonists” (National Research Development Corporation, priority 1988, dated 1990)

Assays:
[1] = test system: U-46619-induced platelet aggregation; test: Inhibition of U-46619-induced platelet aggregation (rat), in vitro in rat platelet rich plasma; type: cell-based; conditions: for IC50: 1 min preincubation at 37° C
Method: a. Inhibition of U-46619-induced platelet aggregation (rat)
Platelet rich plasma (PRP) was prepared from heparanized whole blood (5 units/ml) drawn from the abdominal aorta of ether anesthetized rats. PRP was prepared by centrifugation (Sorvall RC2B, DuPont, Wilmington, Del.) of the whole blood at 150×g for 10 min. Platelet poor plasma (PPP) was prepared by centrifugation at 1200×g for 20 min. Aliquots of PRP and PPP were used to standardize the aggregometer (Payton, Buffalo, N.Y., model 300B) with the recorder (Riken Denshi 2 channel recorder, Payton, model SP H5P) for measurement of […] light transmittance, respectively.
Platelet aggregation was measured as an increase in light transmittance. PRP (390 μl aliquot+5 μl compound vehicle) was preincubated for 1 min. at 37° C., with stirring at 900 rpm in the aggregometer. The vehicle control response was obtained by adding U-46619 (Cayman Chemical, Ann Arbor, Mich., 1-2 units/cuvette/10 μl ) to the aliquot of PRP. Aggregation was monitored until maximum aggregation was achieved (approximately 3 min. following the addition of U-46619). Amount of aggregation was measured by grids on the strip chart.
Compounds were dissolved in either ethanol (ETOH) or Na2 CO3 (0.1M) and preincubated at the desired concentration in PRP for 1 min. at 37° C. with stirring. At the end of the preincubation, U-46619 was added and aggregation measured. Inhibition of aggregation by compound was calculated as percent inhibition of the control aggregation response to U-46619. Dose response curves were generated and IC50 's calculated by linear regression.

[2] = test system: collagen induced platelet aggregation; test: Inhibition of collagen induced platelet aggregation in dog PRP; type: cell-based; conditions: Canis lupus familiaris
Method: c. Inhibition of collagen induced platelet aggregation in dogs by SC-44161 and SC-46984
Blood was collected into citrated vacutainers from the jugular veins of conscious dogs and centrifuged at 200×g for 7 min. PRP was separated and an aliquot (450 μl ) incubated 1 min. in the aggregometer (as described above). Collagen (50 μl, Helena Reagent, bovine tendon) was added and aggregation monitored for 5 min. Percent inhibition and IC50 's were determined as previously described.

[3] = test system: U-46619 induced platelet aggregation; test: Ex vivo inhibition of U-46619 induced platelet aggregation, intravenous (rat); type: in vivo; conditions: for ED50: Platelet, iv, 0.5 min, i.v. bolus, blood sampled 30 sec. later
Method: (§1) II. Ex vivo--(rat) Inhibition of U-46619 induced platelet aggregation
Rats were anesthetized with ether and the jugular vein exposed. Compound dissolved in 0.1M Na Carbonate was injected as a bolus into the jugular vein. Blood (5 ml, heparanized) was sampled 30 sec. later from the abdominal aorta. PRP was prepared by quick centrifugation (Eppendorf, model 5415 at 12,000 rpm for 5 sec.) PPP was prepared by centrifugation for 2 min. PRP was diluted 1:1 with PPP from, similarly treated animals. Aggregation was monitored for 5 min. and inhibition was determined as previously described.

[4] = test system: U-46619 induced platelet aggregation; test: Ex vivo inhibition of U-46619 induced platelet aggregation, intragastric (rat); type: in vivo; conditions: for ED50: read-out: I.G. ED50, ex vivo inhibition of U-46619 induced aggregation; for I.V./I.G. ratio: from the I.V. and the I.G. studies, rat ED50
Method: as §1
Compounds dissolved in Na Carbonate were administered to conscious rats with an I.G. tube. Fifteen minutes post administration (time previously determined to show maximum effect), rats were anesthetized with ether and blood was sampled from the abdominal aorta. PRP was prepared as described in II a.

human washed platelets = test: Analysis of partial agonism with SC-46985 (human washed platelets); type: cell-based
Method: b. Analysis of partial agonism with SC-46985 (human washed platelets)
(§2) Sixty ml of blood were drawn into 1/10 volume of CCD (100 mM Na Citrate and 136 mM glucose, pH 6.5 with HCl) and PRP prepared as described above. PRP was placed on ice for 15 min. One half of the volume of CCD was added and recentrifuged. The platelet pellet was gently resuspended in 1/2 the original volume of PRP in a 0° C. modified Tangen-Hepes-BSA buffer (145 mM NaCl, 5 mM KCl, 0.05 mM CaCl2, 0.1 mM MgCl2, 11 mM glucose, 15 mM Hepes, 1 mg/ml bovine serum albumin, pH adjusted to 7.4 with NaOH). The resuspended platelets were incubated undisturbed at 37° C. for 30 min. After incubation a platelet count was determined and adjusted to 3×10^8 cells/ml with the Tangen-Hepes-BSA buffer.
(§3) 425 μl of the washed human platelet suspension was incubated in the aggregometer in the presence of 16 mM CaCl2 (50 μl ) and SC-46985 for 5 and 10 min. […] (In a study similar to (a) above, aliquots of human washed platelets were incubated with various concentrations of SC-46985 and U-46619 to determine dose-related inhibition of aggregation).

[5] = test system: human washed platelets stimulated with U-46619; test: Inhibition of U-46619 stimulated aggregation of human washed platelets by SC-46985; type: cell-based; conditions: Platelet
Method: as §2, §3

[6] = Rattus norvegicus, Platelet, vehicle Na2CO3 (0.1M), (a) values are estimates based on all-or-none responses
[7] = Platelet, po, 0.25 h, rat, intragastric, 15 min post administration
[8] = Rattus norvegicus, Platelet, vehicle ETOH

SMILES	IC50 [1, 6] [nM]	IC50 [2] [µM]	ED50 [3] [mg/kg]	ED50 [4, 7] [mg/kg]	I.V./I.G. ratio [4]	IC50 [1, 8] [nM]	times more potent than SC-44161 (in vitro) ([1]; rat PRP, U-46619)	also measured
CC(=NNC(=S)Nc1ccccc1)C1C2CCC(C2)C1CC=CCCCC(=O)O (racemic) [SC-44161, (±)7-[3α[[(Phenylamino)thioxomethyl]hydrazono]ethyl]1α,4α-bicyclo[2.2.1]hept-2β-yl]-5Z-heptenoic acid]	70	11.4	0.031	1.21	39			more potent when in aqueous solution than when dissolved in ethanol ([1]; rat PRP, Na carbonate vs ETOH): 5-10 fold
CC(=NNC(=S)Nc1ccccc1)[C@@H]1[C@H]2CC[C@H](C2)[C@H]1C/C=C\CCCC(=O)O [SC-46984, 7-[3α-[1-[[(Phenylamino)thioxomethyl]hydrazono]ethyl]-1R, 1α,4α-bicyclo[2.2.1]hept-2β-yl]5Z-heptenoic acid]	0.7	2.09	0.0087	0.44	51	50	approximately 100 times	more potent in aqueous solution than in ethanol ([1]; rat PRP, Na carbonate vs ETOH): 10-50 times; times more potent than SC-44161 (I.V.) ([3]; i.v., ex vivo): approximately 3.5 times; times more potent than SC-44161 (I.G.) ([4]; rat, intragastric, ex vivo): approximately 2.8 times
CC(=NNC(=S)Nc1ccccc1)[C@H]1[C@@H]2CC[C@@H](C2)[C@@H]1C/C=C\CCCC(=O)O [SC-46985]	~2500		0.045			970		partial agonist activity (human washed platelets; 5 and 10 min. incubation): lack of partial agonist activity; evidence of shape change or aggregation (partial agonism) (human washed platelets; after 5 and 10 min. incubation): no evidence of shape change or aggregation; IC50 [5]: 5.6 µM; times less potent than SC-44161 (I.V.) ([3]; i.v., ex vivo): approximately 1.5 times
CC(=NNC(=S)Nc1ccccc1)C1C2CCC(C2)C1CC=CCCCC(=O)O (stereo not shown) [SC-46986]								IC50 ([1]; vehicle ETOH): 690 nM
CC(=NNC(=S)Nc1ccccc1)[C@@H]1[C@H]2CC[C@H](C2)[C@H]1C/C=C/CCCC(=O)O [SC-47721, 7-[3α-[1-[[(Phenylamino)thioxomethyl]hydrazono]ethyl]-1R, 1α,4α-bicyclo[2.2.1]hept-2β-yl]-5E-heptenoic acid]	~7.5						10-50 times	potency compared with SC-46984 (in vitro) ([1]; rat PRP, U-46619): less potent than SC 46984; inhibition at 1 mg/kg ([4]; Platelet, po, 0.25 h, rat, intragastric, 1 mg/kg, 15 min post administration): 37.5%
